The text below walks through data of US20240261302A1, “METHODS OF TREATING NEURODEGENERATIVE DISEASES OR CONDITIONS” (FloraScience Inc., priority 2023, published 2024).

Each structure is given as a SMILES string.

Series [1] has as its system HT22 cells. The experiment in a line: Oxytosis/ferroptosis assay with erastin (Table 2). Type of series: cell-based. To be noted: Mus musculus, HT-22; erastin as inducer; method not given; read-out: Observed EC50 erastin.
The test system of series [2] is HT22 cells. The experiment in a line: Cytotoxicity assessment of CBN in HT22 cells. Format: cell-based, mouse. As for the experimental part: FIGS. 2A-2I show CBN inhibits oxytosis/ferroptosis in HT22 cells. Representative micrographs of HT22 cells following treatment for 16 h: (FIG. 2A) 0.2% ethanol treatment as vehicle control, (FIG. 2B) 5 μM CBN treatment, (FIG. 2C) 5 mM glutamate treatment, (FIG. 2D) 50 nM RSL3 treatment, (FIG. 2E) 5 μM CBN pretreatment for 1 h followed by 5 mM glutamate treatment, (FIG. 2F) 5 μM CBN pretreatment for 1 h followed by 50 nM RSL3 treatment. Micrographs show the representative morphological characteristics of the cell cultures under a given condition of 16 experimental replicates. Scale bar=100 μm. (FIG. 2G) Cells were pretreated with varying concentrations of CBN for 1 h followed by 5 mM glutamate treatment and incubation for 16 h. (FIG. 2H) Cells were pretreated with varying concentrations of CBN for 1 h followed by 50 nM RSL3 treatment and incubation for 16 h. The results are presented as the percentage of the neuroprotective activity relative to control (100%) and Glu/RSL3 (0%). The neuroprotection curves were analyzed by four-parameter regression. (FIG. 2I) Cytotoxicity assessment of CBN in HT22 cells. Cells were treated with increasing concentrations of CBN or 0.2% ethanol vehicle and incubated for 16 h. Data are the mean of 8-16 replicates per condition±SD.

For series [3], the system named is HT22 cells. The experiment in a line: Reactive Oxygen Species Measurement (CellROX, MitoSOX). Type of series: cell-based, mouse. As to the method: Reactive Oxygen Species Measurement. HT22 cells were seeded onto 96-well black walled plates at a density of 5,000 cells/well in DMEM supplemented with 10% FBS and 1% antibiotics. After the desired treatments, whole cell ROS and mitochondrial superoxide ROS were detected with CellROX Green reagent (Ex/Em=485/520 nm) and MitoSOX Red reagent (Ex/Em=510/580 nm), respectively. Experiments were performed according to the manufacturer's instructions. Fluorescence was measured on a SpectraMax M5 microplate reader. Data were normalized for total protein/well. Each condition was analyzed in sixteen wells per independent experiment (n=16). Results were presented as the percentage of the controls with vehicle alone. Results were verified by live-cell imaging under a fluorescence microscope.

Series [4] deals with HT22 cells. Briefly: Oxytosis Assay (glutamate-induced cell death, MTT). Type of series: cell-based, mouse. As for the experimental part: Oxytosis Assay. HT22 cells were seeded at 3,000 cells/well in 96-well tissue culture plates in DMEM plus 10% FBS and 1% antibiotics. After 24 hr of plating, the cells were pretreated with different concentrations of the test compounds or a vehicle control for 1 hr followed by coincubation with 5 mM glutamate to initiate the cell death cascade. After 16 hr of treatment, cell viability was measured by the 3−(4,5-dimethylthiazol-2-yl)-2,5-diphenyltetrazolium bromide (MTT) assay. Optical absorbance was measured at 570 nm on a SpectraMax M5 microplate reader. Samples were analyzed in eight to sixteen wells per independent experiment (n=8-16). Results were presented as the percentage of the controls with vehicle alone.

Series [5] has as its system HT22 cells. The experiment in a line: Seahorse XF Analysis (mitochondrial stress test) in HT22 cells. Type of series: cell-based, mouse. As for the experimental part:
Seahorse XF Analysis. The assay procedure was previously described. Cellular oxygen consumption rates (OCR) were assayed with a XF Cell Mito Stress Test Kit using a Seahorse XFe96 Extracellular Flux Analyzer (Seahorse Bioscience, North Billerica, MA). Complete Seahorse XF DMEM assay medium was supplemented with 10 mM glucose, 1 mM pyruvate and 2 mM L-glutamine, at pH 7.4. Mitochondrial ETC inhibitors were used at the following concentrations: 1.5 μM oligomycin, 2 μM FCCP, and 0.5 μM of a 1:1 mixture of rotenone and antimycin A. Analyses were conducted using Wave software and XF Report Generators (Agilent Technologies). The sensor cartridge for the XFe analyzer was hydrated overnight at 37° C. before the experiment. OCR data were normalized for total protein/well. Each condition was analyzed in 20-40 wells per independent experiment (n=20-40).
For HT22 cells, 3,000 cells/well were seeded onto the Seahorse XFe96 plates under normal culture condition as described above. The next day, cells were pretreated with CBN at the desired concentrations for 1 hr followed by addition of RSL3 (50 nM) and coincubation for 16 hr. Immediately before the assay, the culture medium in the plates was replaced with complete Seahorse XF DMEM assay medium. The plates were incubated for 1 hr at 37° C. prior to the XF Cell Mito Stress tests according to the manufacturer's instructions.

Series [6] concerns HT22 cells. The experiment in a line: Relative mtDNA copy number (qPCR). Format: cell-based, mouse. As for the experimental part:
Quantitative Reverse Transcription PCR (qPCR) Analysis. HT22 cells were seeded onto 60 mm dishes at a density of 140,000 cells/dish in DMEM supplemented with 10% FBS and 1% antibiotics. After the desired treatments, total RNA was extracted using the RNeasy Mini Kit (Qiagen, Cat #74104, Hilden, Germany). cDNA was synthesized using SuperScript III First-Strand Synthesis System for qPCR (Invitrogen, Cat #18080051, Carlsbad, CA). Amplification was performed with TaqMan Fast Advanced Master Mix (ThermoFisher Scientific, Cat #4444556, Carlsbad, CA) using a QuantStudio 3 Real-Time PCR Systems (ThermoFisher Scientific, CA). The primer pairs were used as follows: CNR1 (Forward, 5′-[…]-3′; Reverse, 5′-[…]-3′); CNR2 (Forward, 5′-[…]-3′; Reverse, 5′-GCCGGGAGGACAGGATAAT-3′). The expression of the GAPDH gene was measured for normalization. The mouse Mitochondrial DNA Copy Number Kit was used (Detroit R&D, Cat #MCN3, Detroit, MI) according to the manufacturer's instructions. Relative fold change was calculated using the 2^(−ΔΔCt) method. Samples were analyzed in three dishes per independent experiment (n=3).

Regarding `CCCCCc1cc(O)c2c(c1)OC(C)(C)c1ccc(C)cc1-2` [CBN, 6,6,9-Trimethyl-3-pentyl-benzo[c]chromen-1-ol], the EC50 in the series with HT22 cells [1] was found to be 2500 nM. For the same molecule, the “cellular morphology, compound alone” value in the series on HT22 cells [2] (5 μM, 16 hr, microscopic imaging) is “did not induce visual changes in cellular morphology”. Further, in the series with HT22 cells [2] (HT22 cells, 16 h), the “concentrations at which cytotoxicity was noted” value is at least 500 µM and the “dose up to which no apparent cytotoxicity was observed” value is at most 200 µM. Also, the “RSL3-induced ROS production at cellular and mitochondrial levels” value in the series with HT22 cells [3] (50 nM RSL3, 16 hr) is given as “suppressed”. The “cellular and mitochondrial ROS (redox status), compound alone” value in the series with HT22 cells [3] (5 μM, 16 hr) was “did not affect the redox status of cells or mitochondria”. For the same molecule, in the series on HT22 cells [4] (5 μM pretreatment 1 hr, then 5 mM glutamate 16 hr), the glutamate-induced morphological changes result is listed as “effectively prevented”. For the same molecule, in the series with HT22 cells [4] (Mus musculus, HT-22, 16 h, read-out: EC50 against oxytosis/ferroptosis induced by 5 mM glutamate (FIG. 2G)), the EC50 came to 1890 nM. For the same molecule, in the series on HT22 cells [5] (10 μM), the “ATP production, compound alone” value is recorded as “partially reduced ATP production”; the “basal and maximal mitochondrial respiration, compound alone” value was “partially decreased both basal and maximal mitochondrial respiration”. In addition, the “mitochondrial respiration and ATP production with RSL3” value in the series on HT22 cells [5] (10 μM pretreatment, RSL3 50 nM 16 hr) is “maintenance of mitochondrial respiration and ATP production”. Moreover, in the series on HT22 cells [6] (50 nM RSL3, 16 hr), the “mtDNA copy number with RSL3” value is on record as “sustain mtDNA at the control level”. Besides, in the series on HT22 cells [6] (5 μM), the “mtDNA copy number, compound alone” value is given as “did not induce significant changes”.
